Assay [1] concerns Bacillus subtilis. Kind of assay: Antibacterial activity against Bacillus subtilis ATCC 6051 after 18 hrs. Format: functional. The following applies: ATCC 6051, 18 h.
For assay [2], the system named is Staphylococcus aureus. Kind of assay: Antibacterial activity against Staphylococcus aureus ATCC 6538p after 18 hrs. The format is functional.
Assay [3] has as its system Klebsiella pneumoniae. Kind of assay: Antibacterial activity against Klebsiella pneumoniae ATCC 10031 after 18 hrs. Format: functional. The following applies: ATCC 10031, 18 h.
The subject of assay [4] is Staphylococcus epidermidis. Briefly: Antibacterial activity against Staphylococcus epidermidis ATCC 14940 after 18 hrs. The format is functional. The following applies: ATCC 14940, 18 h.
Assay [5] deals with Salmonella typhi. Briefly: Antibacterial activity against Salmonella typhi ATCC 19430 after 18 hrs. Format: functional, Salmonella enterica subsp. enterica serovar Typhi. The following applies: Salmonella enterica, ATCC 19430, 18 h.
Assay [6] concerns Staphylococcus aureus. Kind of assay: Antibacterial activity against methicillin-resistant Staphylococcus aureus isolate 2 after 18 hrs. The format is functional.
Assay [7] concerns Enterococcus faecalis. Briefly: Antibacterial activity against Enterococcus faecalis NCTC 6013 after 18 hrs. The format is functional. The following applies: NCTC 6013, 18 h.
The test system of assay [8] is Escherichia coli. Briefly: Antibacterial activity against Escherichia coli NCTC 12900 after 18 hrs. The format is functional. The following applies: NCTC 12900, 18 h.
Assay [9] has as its system Staphylococcus aureus. Kind of assay: Antibacterial activity against methicillin-resistant Staphylococcus aureus isolate 1 after 18 hrs. The format is functional.
Assay [10] relates to Pseudomonas aeruginosa. Briefly: Antibacterial activity against Pseudomonas aeruginosa ATCC 27853 after 18 hrs. Format: functional. The following applies: ATCC 27853, 18 h.
Assay [11] concerns MCF7. Kind of assay: Cytotoxic activity against human MCF7 cells after 48 hrs by MTT reduction assay. Format: functional, cell-based. The following applies: for IC50: MCF7, 48 h.
The test system of assay [12] is Staphylococcus epidermidis. Briefly: Antibacterial activity against Staphylococcus epidermidis ATCC 12228 after 18 hrs. The format is functional. The following applies: ATCC 12228, 18 h.
The subject of assay [13] is Staphylococcus aureus. Kind of assay: Antibacterial activity against Staphylococcus aureus ATCC 25923 after 18 hrs. The following applies: ATCC 25923, 18 h. The format is functional.
For assay [14], the system named is Shigella flexneri. Briefly: Antibacterial activity against Shigella flexneri NCTC 8516 after 18 hrs. Format: functional. The following applies: NCTC 8516, 18 h.
Assay [15] concerns Escherichia coli. Briefly: Antibacterial activity against Escherichia coli ATCC 25922 after 18 hrs. Format: functional. The following applies: ATCC 25922, 18 h.
For assay [16], the system named is Serratia marcescens. Briefly: Antibacterial activity against Serratia marcescens PTCC 1111 after 18 hrs. The format is functional.

Results on four molecules are retold here after ChEMBL document CHEMBL1147210, “Synthesis and antibacterial activity of levofloxacin derivatives with certain bulky residues on piperazine ring” (Eur J Med Chem, 2007).

≈ marks a conversion by molar mass, not a printed value. Calls of active or inactive are those of the source. No cut-off for these calls is given here.

Turning to `C[C@H]1COc2c(N3CCN(C/C(=N\O)c4ccc(Br)cc4)CC3)c(F)cc3c(=O)c(C(=O)O)cn1c23`, the MIC (usually the lowest concentration that inhibits growth of the organism) in assay [1] is 0.12 µg/mL (≈ 0.215 µM); in assay [2] it was 0.5 µg/mL (≈ 0.894 µM); in [3] it was > 4 µg/mL; in assay [4], 0.12 µg/mL (≈ 0.215 µM); in [5] it was 0.5 µg/mL (≈ 0.894 µM); in assay [6] it was 0.5 µg/mL (≈ 0.894 µM). The minimal inhibitory concentration (MIC) in assay [7] was 0.06 µg/mL (≈ 0.107 µM); in [8] it was 1 µg/mL (≈ 1.79 µM); in assay [9], 0.5 µg/mL (≈ 0.894 µM); in assay [10] it was > 4 µg/mL; in assay [12] it was 0.25 µg/mL (≈ 0.447 µM); in assay [13] it was 0.5 µg/mL (≈ 0.894 µM). In addition, the minimum inhibitory concentration (MIC) in assay [14] was 0.5 µg/mL (≈ 0.894 µM); in assay [15] it was 4 µg/mL (≈ 7.15 µM); in assay [16], > 4 µg/mL. In addition, in [11], the midpoint of inhibition, the IC50, lay at 5.2 µM.
For `C[C@H]1COc2c(N3CCN(C/C(=N\O)c4ccc(Cl)cc4)CC3)c(F)cc3c(=O)c(C(=O)O)cn1c23`, the MIC in assay [1] is 0.25 µg/mL (≈ 0.485 µM); in [2], 0.25 µg/mL (≈ 0.485 µM); in [3] it was > 4 µg/mL; in assay [4], 0.12 µg/mL (≈ 0.233 µM); in assay [5], 0.5 µg/mL (≈ 0.971 µM); in [6] it was 0.25 µg/mL (≈ 0.485 µM). In addition, the MIC is 0.06 µg/mL (≈ 0.117 µM) in assay [7]; 1 µg/mL (≈ 1.94 µM) in assay [8]; 0.5 µg/mL (≈ 0.971 µM) in assay [9]; > 4 µg/mL in assay [10]; 0.25 µg/mL (≈ 0.485 µM) in assay [12]; 0.5 µg/mL (≈ 0.971 µM) in assay [13]. Also, the MIC in assay [14] is 0.5 µg/mL (≈ 0.971 µM); in assay [15], 2 µg/mL (≈ 3.88 µM); in assay [16], > 4 µg/mL. The half-inhibitory concentration (IC50) (usually the midpoint of a concentration-inhibition curve) in assay [11] was 5.2 µM.
Turning to `C[C@H]1COc2c(N3CCN(C/C(=N\OCc4ccccc4)c4ccccc4)CC3)c(F)cc3c(=O)c(C(=O)O)cn1c23`, the MIC in assay [1], in [2], in assay [3], in [4], in assay [5] and in assay [6] was > 4 µg/mL each time. Moreover, the MIC in assay [7], in assay [8], in assay [9], in assay [10], in assay [12] and in assay [13] was > 4 µg/mL each time. Besides, the MIC in assay [14], in assay [15] and in assay [16] was > 4 µg/mL each time. Besides, the outcome in assay [11] was inactive.
Consider `C[C@H]1COc2c(N3CCN(CC(=O)c4ccc(Br)cc4)CC3)c(F)cc3c(=O)c(C(=O)O)cn1c23`, for which the minimum inhibitory concentration (MIC) is 0.25 µg/mL (≈ 0.459 µM) in assay [1]; 1 µg/mL (≈ 1.84 µM) in [2]; > 4 µg/mL in assay [3]; 0.25 µg/mL (≈ 0.459 µM) in assay [4]; 0.5 µg/mL (≈ 0.918 µM) in assay [5]; 0.5 µg/mL (≈ 0.918 µM) in [6]. For the same molecule, the MIC in assay [7] is 0.12 µg/mL (≈ 0.22 µM); in [8], 0.5 µg/mL (≈ 0.918 µM); in [9], 1 µg/mL (≈ 1.84 µM); in assay [10], > 4 µg/mL; in assay [12], 0.25 µg/mL (≈ 0.459 µM); in [13], 0.5 µg/mL (≈ 0.918 µM). Further, the MIC came out at 0.5 µg/mL (≈ 0.918 µM) in assay [14], 0.5 µg/mL (≈ 0.918 µM) in assay [15] and 4 µg/mL (≈ 7.35 µM) in assay [16]. In assay [11], this molecule came in with a half-inhibitory concentration (IC50) of 5.2 µM.
